Data: US10556879B2, “Retinoid compound, preparation method therefor, intermediates thereof and application thereof” (SHANGHAI INSTITUTE OF ORGANIC CHEMISTRY, CHINESE ACADEMY OF …, priority 2016, dated 2020)
Where two headings read alike, the source gives them in different places.

System: tumor-repopulating cells of B16-F1 melanoma
Experiment: Inhibitory activity on proliferation of tumor-repopulating cells (TRCs) of B16-F1 melanoma in 3D fibrin gel
Type: cell-based
Settings: for IC50: colony tumor volume, read-out: IC50 of inhibition on TRCs of B16-F1 melanoma/μM
Method: B16-F1 Melanoma cells were incubated with 3D fibrin gel medium (90-Pa) for 5 days, and the desired tumor-repopulating cells of melanoma were screened (Nat. Mater. 2012, 11, 734). Subsequently, the culture medium was respectively treated with collagenase and neutral protease II, and the tumor-repopulating cells of B16-F1 melanoma were released, then the obtained repopulating cells were transferred to a freshly prepared medium to be resuspended and maintained at single-cell state. The tumor-repopulating cells of B16-F1 melanoma were inoculated in 3D fibrin gel medium (90-Pa) for 5 days, with 0.1% DMSO as the negative control group, Tazarotene and Bexarotene as the positive control drugs respectively, […] for 5 days. The colony tumor size was measured and calculated, and the inhibition rate of each drug on the tumor-repopulating cells of B16-F1 melanoma was calculated. The results of inhibitory activity of the compound of the present invention on the proliferation of tumor-repopulating cells of B16-F1 melanoma were shown in Table 2 below.

[1] = Mus musculus, B16-F1, 120 h, 10 μM, incubated 5 days, colony tumor size, read-out: Inhibition rate on TRCs of B16-F1 melanoma at a concentration of 10 μM (%)
[2] = Mus musculus, B16-F1, dose-response curve
[3] = Mus musculus, B16-F1, 10 μM (Table 3), read-out: Inhibition rate on TRCs of B16-F1 melanoma at a concentration of 10 μM/%

| Structure (SMILES) | inhibition at 10 µM [1] | other results |
| --- | --- | --- |
| CC1(C)CC[S+]([O-])c2ccc(C#Cc3ccc(C(=O)O)c(N)c3)cc21 (stereo not shown) [WYC-214, 2-amino-4-((4,4-dimethyl-1-oxothiochroman-6-yl)ethynyl)benzoic Acid] | 51.6% | – |
| COC(=O)c1ccc(C#Cc2ccc3c(c2)C(C)(C)CC[S+]3[O-])cc1N (stereo not shown) [WYC-215, methyl 2-amino-4-((4,4-dimethyl-1-oxothiochroman-6-yl)ethynyl)benzoate] | 80.2% | – |
| CCOC(=O)c1ccc(C#Cc2ccc3c(c2)C(C)(C)CCS3)c(F)c1 [WYC-307, ethyl 3-fluoro-4-((4,4-dimethylthiochroman-6-yl)ethynyl)benzoate] | 70.3% | – |
| CCOC(=O)c1ccc(C#Cc2ccc3c(c2)C(C)(C)CC[S+]3[O-])c([N+](=O)[O-])c1 (stereo not shown) [WYC-311, ethyl 3-nitro-4-((4,4-dimethyl-1-oxothiochroman-6-yl)ethynyl)benzoate] | 80.2% | – |
| CC1(C)CCSc2ccc(C#Cc3ccc(C(=O)O)c(F)c3)cc21 [WYC-304, 2-fluoro-4-((4,4-dimethylthiochroman-6-yl)ethynyl)benzoic Acid] | 75.8% | – |
| CC1(C)CC[S+]([O-])c2ccc(C#Cc3ncc(C(=O)O)cn3)cc21 (stereo not shown) [WYC-210, 2-((4,4-dimethyl-1-oxothiochroman-6-yl)ethynyl)pyrimidin-5-carboxylic Acid] | 18.1% | – |
| CCOC(=O)c1ccc(C#Cc2ccc3c(c2)C(C)(C)CCC3(C)C)cn1 [WYC-341, ethyl 5-((5,5,8,8-tetramethyl-5,6,7,8-tetrahydronaphth-2-yl)ethynyl)pyridin-2-carboxylate] | 87% | – |
| COC(=O)c1ccc(C#Cc2ccc3c(c2)C(C)(C)CC[S+]3[O-])c(NC(C)=O)c1 (stereo not shown) [WYC-321, methyl 3-acetamido-4-((4,4-dimethyl-1-oxothiochroman-6-yl)ethynyl)benzoate] | 78.2% | – |
| CCOC(=O)c1ccc(C#Cc2ccc3c(c2)C(C)(C)CC[S+]3[O-])c(NC(C)=O)c1 (stereo not shown) [WYC-318, ethyl 3-acetamido-4-((4,4-dimethyl-1-oxothiochroman-6-yl)ethynyl)benzoate] | 60% | – |
| CCOC(=O)c1cnc(C#Cc2ccc3c(c2)C(C)(C)CCS3)cn1 [WYC-322, ethyl 5-((4,4-dimethylthiochroman-6-yl)ethynyl)pyrazin-2-carboxylate] | 78.8% | – |
| CCOC(=O)c1ncc(C#Cc2ccc3c(c2)C(C)(C)CCC3(C)C)cn1 [WYC-334, ethyl 5-((5,5,8,8-tetramethyl-5,6,7,8-tetrahydronaphth-2-yl)ethynyl)pyrimidin-2-carboxylate] | 80.6% | – |
| COc1cc(C#Cc2ccc3c(c2)C(C)(C)CCS3)ccc1C(=O)O [WYC-106] | 72.4% | – |
| CCOC(=O)c1ccc(C#Cc2ccc3c(c2)C(C)(C)CCS3)cc1N [WYC-216, ethyl 2-amino-4-((4,4-dimethylthiochroman-6-yl)ethynyl)benzoate] | 84% | – |
| CCOC(=O)c1cnc(C#Cc2ccc3c(c2)C(C)(C)CC[S@+]3[O-])nc1 [WYC-209A, ethyl 2-((4,4-dimethyl-1S-oxothiochroman-6-yl)ethynyl)pyrimidin-5-carboxylate] | – | Inhibition rate on TRCs of B16-F1 melanoma at a concentration of 10 μM/% (10 μM (Table 3)): 98.9%; Inhibition rate on TRCs of B16-F1 melanoma at a concentration of 10 μM (%) (10 μM, incubated 5 days, colony tumor size): 98.9%; IC50 (dose-response curve): 0.15 µM |
| CC1(C)CCSc2ccc(C#Cc3ccc(C(=O)O)cc3[N+](=O)[O-])cc21 [WYC-309, 3-nitro-4-((4,4-dimethylthiochroman-6-yl)ethynyl)benzoic Acid] | 56.8% | – |
| CC1(C)CCSc2ccc(C#Cc3cnc(C#N)nc3)cc21 [WYC-202, 2-cyano-5-((4,4-dimethylthiochroman-6-yl)ethynyl)pyrimidine] | 85.3% | – |

| Structure (SMILES) | inhibition at 10 µM [1] | other results |
| --- | --- | --- |
| COC(=O)c1ccc(C#Cc2ccc3c(c2)C(C)(C)CCS3)c(NC(C)=O)c1 [WYC-316, methyl 3-acetamido-4-((4,4-dimethylthiochroman-6-yl)ethynyl)benzoate] | 76.2% | – |
| COC(=O)c1ccc(C#Cc2ccc3c(c2)C(C)(C)CCS3)cc1OC [WYC-102, methyl 4-((4,4-dimethylthiochroman-6-yl)ethynyl)-2-methoxybenzoate] | 59.1% | – |
| CC1(C)CC[S+]([O-])c2ccc(C#Cc3cnc(C#N)nc3)cc21 (stereo not shown) [WYC-207, 2-cyano-5-((4,4-dimethyl-1-oxothiochroman-6-yl)ethynyl)pyrimidine] | 92.5% | IC50 [2]: 3.3 µM; inhibition at 10 µM [3]: 92.5% |
| CCOC(=O)c1ncc(C#Cc2ccc3c(c2)C(C)(C)CCS3)cn1 [WYC-205, ethyl 5-((4,4-dimethylthiochroman-6-yl)ethynyl)pyrimidin-2-carboxylate] | 91.5% | – |
| CCOC(=O)c1ccc(C#Cc2ccc3c(c2)C(C)(C)CC[S+]3[O-])cc1Cl (stereo not shown) [WYC-326, ethyl 2-chloro-4-((4,4-dimethyl-1-oxothiochroman-6-yl)ethynyl)benzoate] | 73.4% | – |
| COC(=O)c1ccc(C#Cc2ccc3c(c2)C(C)(C)CCC3(C)C)c(O)c1 [WYC-332, methyl 3-hydroxy-4-((5,5,8,8-tetramethyl-5,6,7,8-tetrahydronaphth-2-yl)ethynyl)benzoate] | 55.9% | – |
| COC(=O)c1ccc(C#Cc2ccc3c(c2)C(C)(C)CCS3)cc1O [WYC-101, methyl 4-((4,4-dimethylthiochroman-6-yl)ethynyl)-2-hydroxybenzoate] | 76% | – |
| CCOC(=O)c1ccc(C#Cc2ccc3c(c2)C(C)(C)CCS3)cc1F [WYC-303, ethyl 2-fluoro-4-((4,4-dimethylthiochroman-6-yl)ethynyl)benzoate] | 71.1% | – |
| CCOC(=O)c1cnc(C#Cc2ccc3c(c2)C(C)(C)CC[S+]3[O-])cn1 (stereo not shown) [WYC-324, ethyl 5-((4,4-dimethyl-1-oxothiochroman-6-yl)ethynyl)pyrazin-2-carboxylate] | 85.1% | – |
| CC1(C)CCSc2ccc(C#Cc3ncc(C(=O)O)cn3)cc21 [WYC-206, 2-((4,4-dimethylthiochroman-6-yl)ethynyl)pyrimidin-5-carboxylic acid] | 77.2% | – |
| CCOC(=O)c1ccc(C#Cc2ccc3c(c2)C(C)(C)CCS3)c(NC(C)=O)c1 [WYC-317, ethyl 3-acetamido-4-((4,4-dimethylthiochroman-6-yl)ethynyl)benzoate] | 86.4% | – |
| CC(=O)Nc1cc(C#Cc2ccc3c(c2)C(C)(C)CCC3(C)C)ccc1C(=O)O [WYC-336, 2-acetyl amino-4-((5,5,8,8-tetramethyl-5,6,7,8-tetrahydronaphth-2-yl)ethynyl)benzoic Acid] | 86.7% | – |
| CCOC(=O)c1cnc(C#Cc2ccc3c(c2)C(C)(C)CCS3(=O)=O)nc1 [WYC-320, ethyl 2-((4,4-dimethyl-1,1-dioxothiochroman-6-yl)ethynyl)pyrimidin-5-carboxylate] | 92.6% | IC50 [2]: 1.65 µM; inhibition at 10 µM [3]: 92.6% |
| CCOC(=O)c1ccc(C#Cc2ccc3c(c2)C(C)(C)CC[S+]3[O-])cc1N (stereo not shown) [WYC-218, ethyl 2-amino-4-((4,4-dimethyl-1-oxothiochroman-6-yl)ethynyl)benzoate] | 90.4% | – |
| CCOC(=O)c1ncc(C#Cc2ccc3c(c2)C(C)(C)CC[S+]3[O-])cn1 (stereo not shown) [WYC-208, ethyl 5-((4,4-dimethyl-1-oxothiochroman-6-yl)ethynyl)pyrimidin-2-carboxylate] | 27.7% | – |
